This is an account of results in PubChem BioAssay AID184 (DTP/NCI, 2004).

In this test the test system is BALB/cJ mice, ADJ-PC-6 ip tumor, median survival T/C. In words: NCI In Vivo Anticancer Drug Screen. Data for tumor model ADJ-PC-6 (intraperitoneal) in BALB/cJ mice. The conditions noted are these: endpoint: median survival time, higher = longer survival. Here is the method: The antitumor activity of compounds was measured in mice bearing transplantable tumors. Survival or tumor size were measured and the results are expressed as the measurement made in the treated group (T) divided by the measurement made in the vehicle treated control group (C). The tumor model used in this assay is ADJ-PC-6 (intraperitoneal) in BALB/cJ mice

[1] abbreviates: dose: 2.0 mg/kg/injection, schedule: Q04DX003 (ip), vehicle: saline.
The mark [2] stands for this setting: dose: 1.5 mg/kg/injection, schedule: Q04DX003 (ip), vehicle: saline.
The mark [3] stands for this setting: dose: 3.0 mg/kg/injection, schedule: Q04DX003 (ip), vehicle: saline.
Setting [4] is: dose: 7.5 mg/kg/injection, schedule: Q04DX003 (ip), vehicle: saline.
[5] abbreviates: dose: 15.0 mg/kg/injection, schedule: Q04DX003 (ip), vehicle: saline.
Setting [6] is: dose: 30.0 mg/kg/injection, schedule: Q04DX003 (ip), vehicle: saline.
Where [7] appears, read: dose: 60.0 mg/kg/injection, schedule: Q04DX003 (ip), vehicle: saline.
Setting [8] is: dose: 5.0 mg/kg/injection, schedule: Q01DX009 (ip), vehicle: saline with Tween-80.
Setting [9] is: dose: 10.0 mg/kg/injection, schedule: Q01DX009 (ip), vehicle: saline with Tween-80.
Setting [10] is: dose: 12.5 mg/kg/injection, schedule: Q04DX003 (ip), vehicle: saline.
Where [11] appears, read: dose: 25.0 mg/kg/injection, schedule: Q04DX003 (ip), vehicle: saline.

Where “and” joins values, the source holds several entries; their conditions need not be identical. Equal entries are not always repeated. Toxic doses and inconclusive results are not listed. Starred links: 1 amine or outer side, 2 acyl side, 3 side chain; linkers in the order of their positions; H or OH if unused. Positions of bridges follow the written chain, without caps; N, C: chain ends. Non-standard residues stand in square brackets, D forms with d. Residues, ends and D or L forms follow the SMILES beside them. Chains are numbered I, II in the order given. Actinocin(9to1) = Cc1c2oc3c(C)ccc(C(=O)[*:1])c3nc-2c(C(=O)[*:2])c(N)c1=O; aThr = C[C@H](O)[C@H](N)C(=O)O; NMeV = CN[C@H](C(=O)O)C(C)C; Sar = CNCC(=O)O

Take `COC(=O)C[C@](O)(CCCC(C)(C)O)C(=O)O[C@@H]1C(OC)=C[C@]23CCCN2CCc2cc4c(cc2[C@H]13)OCO4`: the T/C reads like this: (dose: 0.25 mg/kg/injection, schedule: Q04DX003 (ip), vehicle: saline) 104 % of control; (dose: 0.5 mg/kg/injection, schedule: Q04DX003 (ip), vehicle: saline) 93 % of control; (dose: 1.0 mg/kg/injection, schedule: Q04DX003 (ip), vehicle: saline) 88 % of control; under setting [1], 104 % of control; (dose: 4.0 mg/kg/injection, schedule: Q04DX003 (ip), vehicle: saline) 102 % of control.

Take `CO[C@@]12[C@H](COC(N)=O)C3=C(C(=O)C(C)=C(N)C3=O)N1C[C@@H]1N[C@@H]12`: the T/C was 239 % of control under setting [2] and 335 % of control under setting [3].

`COc1cccc2c1C(=O)c1c(O)c3c(c(O)c1C2=O)C[C@@](O)(C(C)=O)C[C@@H]3OC1CC(N)C(O)C(C)O1` (stereo partly specified): the T/C is 101 % of control (dose: 0.38 mg/kg/injection, schedule: Q04DX003 (ip), vehicle: saline); 174 % of control under setting [2]; 177 % of control under setting [1]; 117 % of control under setting [3].

As for `CC[C@](O)(C(=O)O)c1cc2n(c(=O)c1CO)Cc1cc3ccccc3nc1-2`, the T/C is, setting by setting: (dose: 3.75 mg/kg/injection, schedule: Q04DX003 (ip), vehicle: saline) 111 % of control; under setting [4], 120 % of control; (dose: 10.0 mg/kg/injection, schedule: Q04DX003 (ip), vehicle: saline) 158 % of control; under setting [5], 115 % of control; (dose: 20.0 mg/kg/injection, schedule: Q04DX003 (ip), vehicle: saline) 185 % of control; under setting [6], 158 % of control. For the same molecule, the T/C runs as follows: (dose: 40.0 mg/kg/injection, schedule: Q04DX003 (ip), vehicle: saline) 174 % of control; under setting [7], 188 % of control; (dose: 80.0 mg/kg/injection, schedule: Q04DX003 (ip), vehicle: saline) 196 % of control.

`O=C1NC(=O)C2C3C=CC(C12)C1C2C(=O)NC(=O)C2C31` (stereo unspecified): the T/C is 110 % of control under setting [8]; 88 % of control and 103 % of control under setting [9]; 235 % of control (dose: 80.0 mg/kg/injection, schedule: Q01DX009 (ip), vehicle: saline with Tween-80).

As to `N[C@H](C(=O)O)[C@@H]1CC(Cl)=NO1`, the T/C (dose: 1.0 mg/kg/injection, schedule: Q01DX009 (ip), vehicle: saline) was 121 % of control.

On to `CO[C@H]1C[C@](C)(O)Cc2cc3c(c(O)c21)C(=O)c1c(O)cc2c(c1C3=O)O[C@@H]1O[C@@]2(C)[C@H](O)[C@@H](N(C)C)[C@@H]1O`, for which the T/C under setting [4] was 188 % of control; the T/C under setting [10] was 189 % of control; the T/C under setting [5] is 319 % of control; the T/C under setting [11] is 252 % of control; the T/C under setting [6] is 267 % of control; the T/C under setting [7] is 471 % of control.

For `[Cl][Pt+2][Cl].[NH-]C1CCC1.[NH2-]`, the T/C is, setting by setting: (dose: 1.04 mg/kg/injection, schedule: Q04DX003 (ip), vehicle: water) 216 % of control; (dose: 1.73 mg/kg/injection, schedule: Q04DX003 (ip), vehicle: water) 265 % of control; (dose: 2.88 mg/kg/injection, schedule: Q04DX003 (ip), vehicle: water) 301 % of control.

On to `COc1cc(NCc2ccc3nc(N)nc(N)c3c2C)cc(OC)c1OC`, for which the T/C is, setting by setting: (dose: 3.75 mg/kg/injection, schedule: Q01DX009 (ip), vehicle: Klucel (hydroxypropylcellulose) (HPC)) 98 % of control; (dose: 7.5 mg/kg/injection, schedule: Q01DX009 (ip), vehicle: Klucel (hydroxypropylcellulose) (HPC)) 110 % of control; (dose: 15.0 mg/kg/injection, schedule: Q01DX009 (ip), vehicle: Klucel (hydroxypropylcellulose) (HPC)) 115 % of control.

Take `O=NN(CCCl)C(=O)NCCCl`: the T/C is 106 % of control (dose: 1.25 mg/kg/injection, schedule: Q04DX003 (ip), vehicle: saline + alcohol); 101 % of control and 178 % of control and 248 % of control (dose: 5.0 mg/kg/injection, schedule: Q04DX003 (ip), vehicle: saline + alcohol); 150 % of control and 322 % of control (dose: 10.0 mg/kg/injection, schedule: Q04DX003 (ip), vehicle: saline + alcohol); 222 % of control and 235 % of control and 355 % of control (dose: 20.0 mg/kg/injection, schedule: Q04DX003 (ip), vehicle: saline + alcohol); 92 % of control and 235 % of control (dose: 40.0 mg/kg/injection, schedule: Q04DX003 (ip), vehicle: saline + alcohol).

As to `CC(C)NC(=O)OCc1c(COC(=O)NC(C)C)c(-c2ccc(Cl)c(Cl)c2)n2c1CCC2`, the T/C is 235 % of control (dose: 3.75 mg/kg/injection, schedule: Q01DX009 (ip), vehicle: saline with Tween-80); 222 % of control under setting [8]; 235 % of control (dose: 7.5 mg/kg/injection, schedule: Q01DX009 (ip), vehicle: saline with Tween-80); 222 % of control under setting [9]; 235 % of control (dose: 15.0 mg/kg/injection, schedule: Q01DX009 (ip), vehicle: saline with Tween-80); 222 % of control (dose: 20.0 mg/kg/injection, schedule: Q01DX009 (ip), vehicle: saline with Tween-80). For the same molecule, the T/C reads like this: (dose: 30.0 mg/kg/injection, schedule: Q01DX009 (ip), vehicle: saline with Tween-80) 235 % of control; (dose: 60.0 mg/kg/injection, schedule: Q01DX009 (ip), vehicle: saline with Tween-80) 235 % of control.

Take `O=C(O)c1ccc(C(=O)O)o1.[NH-]C1CCCCC1[NH-].[Pt+2]`: the T/C is 265 % of control (dose: 2.59 mg/kg/injection, schedule: Q04DX003 (ip), vehicle: water); 254 % of control (dose: 4.3 mg/kg/injection, schedule: Q04DX003 (ip), vehicle: water); 367 % of control (dose: 7.2 mg/kg/injection, schedule: Q04DX003 (ip), vehicle: water); 234 % of control (dose: 12.0 mg/kg/injection, schedule: Q04DX003 (ip), vehicle: water); 451 % of control (dose: 20.0 mg/kg/injection, schedule: Q04DX003 (ip), vehicle: water).

Consider `Cc1c2oc3c(C)ccc(C(=O)N[C@@H]4C(=O)N[C@H](C(C)C)C(=O)N5CCC[C@H]5C(=O)N(C)CC(=O)N(C)[C@@H](C(C)C)C(=O)O[C@H]4C)c3nc-2c(C(=O)N[C@@H]2C(=O)N[C@H](C(C)C)C(=O)N3CCC[C@H]3C(=O)N(C)CC(=O)N(C)[C@@H](C(C)C)C(=O)O[C@H]2C)c(N)c1=O` (I: [aThr][dV]P[Sar][NMeV] / II: [aThr][dV]P[Sar][NMeV]; ester I:1-I:C, II:1-II:C; linker I:N-II:N via Actinocin(9to1)), for which the T/C is, setting by setting: (dose: 0.04 mg/kg/injection, schedule: Q04DX003 (ip), vehicle: saline + alcohol) 115 % of control; (dose: 0.08 mg/kg/injection, schedule: Q04DX003 (ip), vehicle: saline + alcohol) 115 % of control; (dose: 0.3 mg/kg/injection, schedule: Q04DX003 (ip), vehicle: saline + alcohol) 156 % of control; (dose: 0.6 mg/kg/injection, schedule: Q04DX003 (ip), vehicle: saline + alcohol) 189 % of control and 197 % of control; (dose: 37.5 micrograms/kg/injection, schedule: Q04DX003 (ip), vehicle: saline + alcohol) 94 % of control; (dose: 75.0 micrograms/kg/injection, schedule: Q04DX003 (ip), vehicle: saline + alcohol) 103 % of control. Moreover, the T/C was 97 % of control (dose: 150.0 micrograms/kg/injection, schedule: Q04DX003 (ip), vehicle: saline + alcohol) and 90 % of control (dose: 300.0 micrograms/kg/injection, schedule: Q04DX003 (ip), vehicle: saline + alcohol).

For the molecule `CN1N=C(N)c2cn(C3OC(COP(=O)(O)O)C(O)C3O)c3ncnc1c23` (stereo unspecified), the T/C is, setting by setting: under setting [10], 222 % of control; (dose: 12.5 mg/kg/injection, schedule: Q04DX003 (ip), vehicle: water) 471 % of control; under setting [11], 222 % of control; (dose: 25.0 mg/kg/injection, schedule: Q04DX003 (ip), vehicle: water) 471 % of control; (dose: 50.0 mg/kg/injection, schedule: Q04DX003 (ip), vehicle: saline) 222 % of control and 275 % of control and 369 % of control; (dose: 50.0 mg/kg/injection, schedule: Q04DX003 (ip), vehicle: water) 471 % of control. Besides, the T/C runs as follows: (dose: 100.0 mg/kg/injection, schedule: Q04DX003 (ip), vehicle: saline) 222 % of control and 275 % of control and 369 % of control; (dose: 100.0 mg/kg/injection, schedule: Q04DX003 (ip), vehicle: water) 471 % of control; (dose: 200.0 mg/kg/injection, schedule: Q04DX003 (ip), vehicle: saline) 275 % of control and 369 % of control.
